Test results: paper PMC10944868, “Synthesis, biological and computational evaluation of novel cyanomethyl vinyl ether derivatives” (Frontiers in Pharmacology, 2024)

Experiments:
Type in all cases: cell-based
[1] = tested on: SKOV3 (human ovarian carcinoma); experiment: Cytotoxicity assay (CCK8), SKOV3; settings: SK-OV-3, SKOV3 cells, 48 h
Experimental: (§1) Cells were cultured according to the supplier´s instructions (ATCC technologies, A-549 (CCL-185), BT-20 (HTB-19), SKOV3 (HTB-77), HCT116 (CCL-247), MRC5 (CCL-171). Cells were seeded in 96-well plates at a density of 2–2.5 × 10^3 cells per well and incubated overnight in 0.1 mL of media supplied with 10% Fetal Bovine Serum (Lonza) in 5% CO2 incubator at 37°C. On day 2, drugs were added and samples were incubated for 48 h. After treatment, 10 µL of cell counting kit-8 was added into each well for additional 2 h incubation at 37°C. The absorbance of each well was determined by an Automatic Elisa Reader System at 450 nm wavelength.

[2] = tested on: BT20 (human breast carcinoma); experiment: Cytotoxicity assay (CCK8), BT20; settings: BT20 cells
Experimental: as §1

[3] = tested on: A549 (carcinomic human alveolar basal epithelial cells); experiment: Cytotoxicity assay (CCK8), A549; settings: 48 h
Experimental: as §1

[4] = tested on: HCT-116 (human colorectal carcinoma); experiment: Cytotoxicity assay (CCK8), HCT116; settings: HCT116 cells, 48 h
Experimental: as §1

[5] = tested on: MRC-5 (non-malignant lung fibroblasts); experiment: Cytotoxicity assay (CCK8), MRC5; settings: Homo sapiens, MRC5 non-cancerous cells, 48 h
Experimental: as §1

SMILES | IC50 [1] [µM] | IC50 ([2]; Homo sapiens, BT-20, 48 h) [µM] | IC50 [3] [µM] | IC50 [4] [µM] | IC50 [5] [µM] | IC50 ([2]; 48 h) [µM]
COC(=O)/C=C\OC(C#N)c1ccc(C)cc1 (stereo not shown) [Compound 9Z] | > 50 | 20.2 ± 3.78 | > 50 | > 50 | > 50 | –
CCC(C#N)O/C=C\C(=O)OC (stereo not shown) [Compound 1Z] | > 50 | > 50 | > 50 | > 50 | > 50 | –
COC(=O)/C=C\OC(C#N)c1cc2ccccc2c2ccccc12 (stereo not shown) [Compound 12Z] | 11.9 ± 1.88 | 11.9 ± 1.1 | > 50 | > 50 | > 50 | –
CC(C)OC(=O)/C=C/OC(C#N)c1ccccc1 (stereo not shown) [Compound 4E, Isoropyl (E)-3-(cyano(phenyl)methoxy)acrylate] | > 50 | – | > 50 | > 50 | > 50 | –
CCCCCCC(C#N)O/C=C\C(=O)OC (stereo not shown) [Compound 2Z] | > 50 | 17.3 ± 3.44 | > 50 | > 50 | > 50 | –
COC(=O)/C=C\OC(C#N)c1ccccc1 (stereo not shown) [Compound 5Z] | 29.8 ± 2.09 | 19.9 ± 3.42 | > 50 | > 50 | > 50 | –
CC(C)OC(=O)/C=C\OC(C#N)c1ccccc1 (stereo not shown) [Compound 4Z, Isoropyl (Z)-3-(cyano(phenyl)methoxy)acrylate] | > 50 | – | > 50 | > 50 | > 50 | –
COC(=O)/C=C/OC(C#N)c1cccs1 (stereo not shown) [Compound 10E] | > 50 | – | > 50 | > 50 | > 50 | –
COC(=O)/C=C/OC(C#N)c1ccc(F)cc1 (stereo not shown) [Compound 8E] | > 50 | – | > 50 | > 50 | > 50 | –
COC(=O)/C=C/OC(C#N)c1cc2ccccc2c2ccccc12 (stereo not shown) [Compound 12E] | 7.35 ± 1.42 | 9.89 ± 0.25 | 9.89 ± 0.25 | 16.1 ± 1.2 | 14.4 ± 0.86 | 7 ± 1.96
COC(=O)/C=C/OC(C#N)c1ccc(C(F)(F)F)cc1 (stereo not shown) [Compound 7E] | 2.62 ± 0.53 | 10 ± 2.17 | 29.3 ± 1.1 | > 50 | > 50 | –
COC(=O)/C=C\OC(C#N)c1ccc(OC)cc1 (stereo not shown) [Compound 6Z] | 31.3 ± 4.42 | 12.6 ± 1.76 | > 50 | > 50 | > 50 | –
CCCCCCC(C#N)O/C=C/C(=O)OC (stereo not shown) [Compound 2E] | 41.6 ± 2.46 | 15.8 ± 2.9 | > 50 | > 50 | > 50 | –
CCCOC(=O)/C=C/OC(C#N)c1ccccc1 (stereo not shown) [Compound 3E, Propyl (E)-3-(cyano(phenyl)methoxy)acrylate] | > 50 | – | > 50 | > 50 | > 50 | –
COC(=O)/C=C\OC(C#N)c1ccc(F)cc1 (stereo not shown) [Compound 8Z] | > 50 | – | > 50 | > 50 | > 50 | –
CCC(C#N)O/C=C/C(=O)OC (stereo not shown) [Compound 1E] | 2.92 ± 0.28 | 7.07 ± 1.28 | > 50 | > 50 | > 50 | –
COC(=O)/C=C/OC(C#N)c1ccc(OC)cc1 (stereo not shown) [Compound 6E] | 12.4 ± 1.18 | 27.8 ± 5.31 | > 50 | > 50 | > 50 | –
COC(=O)/C=C/OC(C#N)c1ccccc1 (stereo not shown) [Compound 5E] | 3.84 ± 1.56 | 8.31 ± 1.26 | 18.9 ± 1.2 | > 50 | > 50 | –
COC(=O)/C=C/OC(C#N)c1ccc(C)cc1 (stereo not shown) [Compound 9E] | 8.08 ± 2.08 | 4.98 ± 2.77 | 21.4 ± 0.83 | > 50 | > 50 | –
COC(=O)/C=C\OC(C#N)c1ccc(C(F)(F)F)cc1 (stereo not shown) [Compound 7Z] | > 50 | > 50 | > 50 | > 50 | > 50 | –
COC(=O)/C=C\OC(C#N)c1cccs1 (stereo not shown) [Compound 10Z] | > 50 | – | > 50 | > 50 | > 50 | –
CCCOC(=O)/C=C\OC(C#N)c1ccccc1 (stereo not shown) [Compound 3Z, Propyl (Z)-3-(cyano(phenyl)methoxy)acrylate] | > 50 | – | > 50 | > 50 | > 50 | –
